# According to patent US10975069B2, “Sigma-2 receptor ligand drug conjugates as antitumor compounds, methods of synthesis and uses thereof” (priority 2014, dated 2021):
# Like-named read-outs stand apart in the source and are kept apart here.
# What was measured:
# KCKO cells = test: Viability assay (CELLTITER-GLO), 24 hours treatment; format: cell-based, murine
# Protocol: (§1) In these experiments, viability assays after 24 hours treatment of human and murine pancreatic cancer cell lines and synovial sarcoma cell lines with SW V-49s or its parent compounds SV119 and Erastin, both singly and in combination, were performed. […] In comparison.
# (§2) Cytotoxicity of the drugs was evaluated by CELLTITER-GLO®. Luminescent cell viability assay (Promega, Madison, Wis.). Pancreatic cell lines were plated at a density of 2×10^4/well in white 96 well, clear bottom plates for 24 hours prior to treatment. Drugs were dissolved in DMSO and serially diluted in culture medium to achieve the final concentration of DMSO less than 1%. Cells were then treated for 24 hours and 100 μl of the CELLTITER-GLO® reagent was added to each well. The contents of the plates were mixed using an orbital shaker and subsequently incubated for 10 minutes at room temperature. Luminescence signal was measured using a multi-mode microplate reader (BioTek instruments. Winooski, Vt.). Different drug concentrations were assayed in triplicate. To evaluate the efficacy of the drugs, IC50 of the compounds was calculated on a panel of human and mouse derived pancreatic cancer cell lines in vitro. Cells were treated for 24 hours with SW V-49s, SV119, Erastin, and an equimolar mixture of SV119 and Erastin, then CELLTITER-GLO® viability assay was performed.
# [1] = test system: all human and murine pancreatic cancer cell lines tested; test: Viability assay on panel of pancreatic cancer cell lines; format: cell-based
# Protocol: as §1, §2
# AsPC-1 = test: Viability assay (CELLTITER-GLO), 24 hours treatment; format: cell-based, human
# Protocol: as §1, §2
# (§3) AsPC-1 and SYO-1 cells were plated in 96 well plate overnight then treated with similar concentrations of Erastin for 24 hours. Viability assay was performed after 24 hours. […] (p<0.0001), (FIG. 10).
# caspase 3/7 = test: CASPASE-GLO caspase 3/7 assay in AsPC-1 cells; format: cell-based, human; conditions: for caspase activity compared to 4 μM SW V-49s: 50 μM, 24 hr., FIG. 5A
# Excerpt: In these experiments, the inventors investigated whether compounds of the present teachings were lethal towards pancreatic cancer cells by triggering an apoptosis cell death pathway, a ferroptosis cell death pathway, or a combination thereof. The inventors thus performed assays for caspase 3/7 as an indicator of apoptotic cell death, and assays for the generation of reactive oxygen species (ROS) as an indicator of ferropoptotic cell death. […] In FIG. 5B, results are shown for Caspase-Glo® (Promega) assays of Aspc-1 cells treated with 8 μM SW V-49s, 8 μM Erastin, 8 μM SV119, or 8 μM of an equimolar mixture of Erastin and SV 119, for 7 hrs.
# In these experiments, caspase-3/7.8 and 9 activities were measured In AsPC-1 cells using the corresponding CASPASE-GLO® Assay according to the manufacturer's instructions (Promega, Madison. Wis.). This assay is based on a caspase-specific substrate, which is cleaved to release aminoluciferin, a substrate of luciferase that results in caspase-specific luminescence signals. Cells were seeded at a density of 2×10^4 in white 96-well, clear bottom plates for 24 hours before treatment with 4 μM of compounds. The contents were then mixed using a plate shaker for 30 seconds, thereafter incubated at room temperature for 90 minutes. Luminescence signal was measured using a multi-mode microplate reader (BioTek). Assay was performed in triplicates, and the caspase activity of DMSO was considered as a base line.
# The present inventors have shown that SV119 induces caspase-3 dependent apoptosis (Kashiwagi, H., el al. Mol Cancer 2007; 6:48). In these experiments, AsPC-1 cells were treated with 4 μM of SW V-49s. SV119, Erastin, and equimolar mixture of SV119 and Erastin for 24 hours. Using CASPASE-GLO® Assays, Caspase-3 level was measured to assess the activity of SW 119 domain of the SW V-49s compound and Caspase-8 and 9 levels were measured to identify which apoptotic pathway was involved.
# [2] = test system: reactive oxygen species (ROS); test: Reactive oxygen species (ROS) assay in AsPC-1 cells; format: cell-based, human; conditions: 8 μM; for increase in ROS: 30 min, compared to Erastin, SV119 or combination, FIG. 6; for ROS level compared to others: one hour, FIG. 11B
# Protocol: In FIG. 6, results are shown for reactive oxygen species (ROS) assays of Aspc-1 treated with 8 μM 8 μM SW V-49s, 8 μM Erastin, 8 μM SV119, or 8 μM of an equimolar mixture of Erastin and SV119, or a positive control for 30 min. […] Parent compounds SV119 and Erastin, applied to cells either singly or in combination, had no effect at the same concentration.
# ROS measurement was performed using Total ROS/Superoxide Detection Kit (Enzo life sciences, Farmingdale, N.Y.) according to the manufacturer's instructions. Briefly. As PC-1 cells were seeded at a density of 2×10^4 cells/well in a black wall clear bottom 96-well plate for 24 hours. Compounds were dissolved in DMSO and diluted in culture medium to achieve a final concentration of DMSO less than 1%. AsPC-1 cells were treated with 8 μM of SV119, Erastin, and equimolar mixture of SV119 and Erastin. ROS assay was performed one hour after treatment. Cells were treated for one hour, then media was removed and 100 μL/well of ROS/Superoxide Detection Mix was added. Fluorescence signal was measured using a multi-mode microplate reader (Bio-Tek, Winooski, Vt.). The assay was performed in 6 replicates.
# MIA PaCa-2 = test: Viability assay (CELLTITER-GLO), 24 hours treatment; format: cell-based, human
# Protocol: as §1, §2
# BxPC-3 = test: as above; format: cell-based, human
# Protocol: as §1, §2
# PANC-1 = test: as above; format: cell-based, human
# Protocol: as §1, §2
# SYO-1 = test: Viability assay, 24 hours treatment, synovial sarcoma cells; format: cell-based
# Protocol: as §1
# Synovial sarcoma cell lines (FIG. 4F, SYO-1, ME1 deficient) are so sensitive to SW V-49s that it was difficult to measure the minimal drug concentration required to kill 50% of the cancer cells, but the measured IC50 was approx. 1.0 μM.
# as §3
# [3] = 24 hours treatment, SYO-1, ME1 deficient, FIG. 4F, read-out: IC50
compound,measurement,setting,value
CCOc1ccccc1-n1c(C(C)N2CCN(C(=O)COc3ccc(Cl)cc3)CC2)nc2ccccc2c1=O (stereo not drawn) [Erastin],IC50,"KCKO cells; Mus musculus, 24 h, read-out: IC50 ± SEM, KCKO",> 150 µM
same,IC50,"[1]; Pancreatic cancer cell, 24 h, 24 hours treatment, against all human and murine pancreatic cancer cell lines tested",> 100 µM
same,IC50,"[1]; Pancreatic cancer cell, 24 h, panel of human and mouse derived pancreatic cancer cell lines",> 150 µM
same,death of cells,"AsPC-1; 40 μM, 24 hours, AsPC-1 cells, FIG. 10",2%
same,IC50,"AsPC-1; Homo sapiens, ASPC1, 24 h, read-out: IC50 ± SEM, AsPC-1",> 150 µM
same,caspase activity compared to 4 μM SW V-49s,caspase 3/7; AsPC-1 cells,far less caspase activity
same,increase in ROS,[2],no effect
same,ROS level compared to others,[2],no increase
same,IC50,"MIA PaCa-2; Homo sapiens, MIA PaCa-2, 24 h, read-out: IC50 ± SEM, MiaPaCa-2",> 150 µM
same,IC50,"BxPC-3; Homo sapiens, BXPC-3, 24 h, read-out: IC50 ± SEM, BxPC-3",> 150 µM
same,IC50,"PANC-1; Homo sapiens, PANC-1, 24 h, read-out: IC50 ± SEM, PANC-1",> 150 µM
same,death of cells,"SYO-1; 40 μM, 24 hours, SYO-1 cells, FIG. 10",84%
same,IC50,SYO-1; 24 h,> 16 µM
"COc1ccc(C)cc1NC(=O)OC1C[C@H]2CCC[C@@H](C1)N2CCCCCCN (stereo partly drawn) [SV119, reference compound]",IC50,"KCKO cells; 24 hours, mean ± SEM, n ≥ 3, read-out: IC50 ± SEM, KCKO",68.7 ± 10.1 µM
same,IC50,"[1]; 24 hours treatment, against all human and murine pancreatic cancer cell lines tested, read-out: IC50",> 54 µM
same,IC50,"AsPC-1; 24 hours, mean ± SEM, n ≥ 3, read-out: IC50 ± SEM, AsPC-1",111 ± 8.3 µM
same,caspase activity compared to 4 μM SW V-49s,caspase 3/7; AsPC-1 cells,far less caspase activity
same,increase in ROS,[2],no effect
same,ROS level compared to others,[2],no increase
same,IC50,"MIA PaCa-2; 24 hours, mean ± SEM, n ≥ 3, read-out: IC50 ± SEM, MiaPaCa-2",94.5 ± 1.9 µM
same,IC50,"BxPC-3; 24 hours, mean ± SEM, n ≥ 3, read-out: IC50 ± SEM, BxPC-3",54.2 ± 2.6 µM
same,IC50,"PANC-1; 24 hours, mean ± SEM, n ≥ 3, read-out: IC50 ± SEM, PANC-1",111 ± 5.3 µM
same,IC50,SYO-1; [3],6.2 µM
CCOc1ccccc1-n1c(CN2CCN(C(=O)COc3ccc(CNCCCCCCN4C5CCCC4CC(OC(=O)Nc4cc(C)ccc4OC)C5)cc3)CC2)nc2ccccc2c1=O.O=C(O)C(=O)O (stereo not drawn) [SW V-49s],IC50,"KCKO cells; Mus musculus, 24 h, read-out: IC50 concentration",2.2 µM
same,IC50,"KCKO cells; Mus musculus, 24 hours, mean ± SEM, n ≥ 3, read-out: IC50 ± SEM, KCKO",2.4 ± 0.2 µM
same,reduction of IC50 as compared to equimolar mixture of SV119 and Erastin,"[1]; 24 hours, pancreatic cancer cell line panel",17-20 fold
same,IC50,"AsPC-1; Homo sapiens, ASPC1, 24 h, read-out: IC50 concentration",3 µM
same,IC50,"AsPC-1; Homo sapiens, ASPC1, 24 hours, mean ± SEM, n ≥ 3, read-out: IC50 ± SEM, AsPC-1",3.2 ± 0.3 µM
same,caspase-3 fold above baseline,"caspase 3/7; 4 μM, 24 hours, AsPC-1, DMSO baseline, FIG. 12A",3.4 fold
same,increase in caspase 3/7 activity compared to all controls,"caspase 3/7; 8 μM, 7 hrs, AsPC-1 cells, FIG. 5B",approximately 3 fold
same,increase in ROS,[2],50%
same,ROS level compared to others,[2],1.5 fold
same,IC50,"MIA PaCa-2; Homo sapiens, MIA PaCa-2, 24 h, read-out: IC50 concentration",2.3 µM
same,IC50,"MIA PaCa-2; Homo sapiens, MIA PaCa-2, 24 hours, mean ± SEM, n ≥ 3, read-out: IC50 ± SEM, MiaPaCa-2",3 ± 0.3 µM
same,IC50,"BxPC-3; Homo sapiens, BXPC-3, 24 h, read-out: IC50 concentration",2.3 µM
same,IC50,"BxPC-3; Homo sapiens, BXPC-3, 24 hours, mean ± SEM, n ≥ 3, read-out: IC50 ± SEM, BxPC-3",2.5 ± 0.1 µM
same,IC50,"PANC-1; Homo sapiens, PANC-1, 24 h, read-out: IC50 concentration",4.3 µM
same,IC50,"PANC-1; Homo sapiens, PANC-1, 24 hours, mean ± SEM, n ≥ 3, read-out: IC50 ± SEM, PANC-1",4.1 ± 0.2 µM
same,IC50,SYO-1; [3],~1 µM
